According to patent US9169254B2, “Spiroimidazolone derivative” (Chugai Seiyaku Kabushiki Kaisha, priority 2009, dated 2015):

Target: T1, human PTH1 receptor (Homo sapiens, UniProt Q03431)
T1 sequence (Q03431 27-593): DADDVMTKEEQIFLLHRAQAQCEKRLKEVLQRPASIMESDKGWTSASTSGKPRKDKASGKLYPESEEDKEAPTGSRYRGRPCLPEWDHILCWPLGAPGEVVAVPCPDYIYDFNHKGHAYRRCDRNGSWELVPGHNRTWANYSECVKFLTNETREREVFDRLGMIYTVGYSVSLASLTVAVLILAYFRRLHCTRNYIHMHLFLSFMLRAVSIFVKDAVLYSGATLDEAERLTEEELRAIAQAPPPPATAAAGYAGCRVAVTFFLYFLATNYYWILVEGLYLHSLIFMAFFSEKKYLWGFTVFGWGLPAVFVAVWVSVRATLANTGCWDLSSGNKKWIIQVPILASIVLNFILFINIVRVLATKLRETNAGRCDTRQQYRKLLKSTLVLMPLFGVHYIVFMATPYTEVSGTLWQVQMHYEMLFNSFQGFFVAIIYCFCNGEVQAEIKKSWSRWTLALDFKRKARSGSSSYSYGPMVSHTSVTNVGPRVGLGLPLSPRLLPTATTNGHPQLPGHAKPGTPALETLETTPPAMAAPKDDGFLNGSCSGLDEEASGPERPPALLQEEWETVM
Assay: In vitro cAMP signal activity in HKRK-B7 cells (LLC-PK1 cells overexpressing the human PTH1 receptor)
Type: cell-based
Settings: HKRK-B7 cells; compound at 1×10^−3 M; cAMP produced as percentage of that produced by hPTH(1-34) at 100 nM

cAMP production activity (%)	SMILES
66%	Cc1cc(C(=O)N(C)C)ccc1CCS(=O)(=O)N1CCC2(CC1)N=C(c1ccc(Cl)cc1Cl)NC2=O [Compound 73, 4-{2-[2-(2,4-Dichloro-phenyl)-4-oxo-1,3,8-triaza-spiro[4.5]dec-1-ene-8-sulfonyl]-ethyl}-3,N,N-trimethyl-benzamide]
31%	Cc1cc(C(=O)N(C)C)ccc1CCS(=O)(=O)N1CCC2(CC1)N=C(c1c(F)cccc1F)NC2=O [Compound 78, 4-{2-[2-(2,6-difluoro-phenyl)-4-oxo-1,3,8-triaza-spiro[4.5]dec-1-ene-8-sulfonyl]-ethyl}-3,N,N-trimethyl-benzamide]
8.2%	COc1cccc(OC)c1C1=NC2(CCN(S(=O)(=O)CCc3ccc(C(=O)N(C)C)cc3C)CC2)C(=O)N1 [Compound 79, 4-{2-[2-(2,6-dimethoxy-phenyl)-4-oxo-1,3,8-triaza-spiro[4.5]dec-1-ene-8-sulfonyl]-ethyl}-3,N,N-trimethyl-benzamide]
71%	COc1cccc(C2=NC3(CCN(S(=O)(=O)CCc4ccc(C(=O)N(C)C)cc4C)CC3)C(=O)N2)c1 [Compound 80, 4-{2-[2-(3-methoxy-phenyl)-4-oxo-1,3,8-triaza-spiro[4.5]dec-1-ene-8-sulfonyl]-ethyl}-3,N,N-trimethyl-benzamide]
57%	Cc1cc(C(=O)N(C)C)ccc1CCS(=O)(=O)N1CCC2(CC1)N=C(c1cccc(Cl)c1)NC2=O [Compound 81, 4-{2-[2-(3-chloro-phenyl)-4-oxo-1,3,8-triaza-spiro[4.5]dec-1-ene-8-sulfonyl]-ethyl}-3,N,N-trimethyl-benzamide]
51%	Cc1cccc(C2=NC3(CCN(S(=O)(=O)CCc4ccc(C(=O)N(C)C)cc4C)CC3)C(=O)N2)c1 [Compound 84, 3,N,N-trimethyl-4-[2-(4-oxo-2-m-tolyl-1,3,8-triaza-spiro[4.5]dec-1-ene-8-sulfonyl)-ethyl]-benzamide]
76%	Cc1cc(C(=O)N(C)C)ccc1CCS(=O)(=O)N1CCC2(CC1)N=C(c1cc(C(F)(F)F)ccc1Cl)NC2=O [Compound 85, 4-{2-[2-(2-chloro-5-trifluoromethyl-phenyl)-4-oxo-1,3,8-triaza-spiro[4.5]dec-1-ene-8-sulfonyl]-ethyl}-3,N,N-trimethyl-benzamide]
66%	Cc1cc(C(=O)N(C)C)ccc1CCS(=O)(=O)N1CCC2(CC1)N=C(c1cccc(C(F)(F)F)c1)NC2=O [Compound 86, 3,N,N-trimethyl-4-{2-[4-oxo-2-(3-trifluoromethyl-phenyl)-1,3,8-triaza-spiro[4.5]dec-1-ene-8-sulfonyl]-ethyl}-benzamide]
6.7%	Cc1cc(C(=O)N(C)C)ccc1CCS(=O)(=O)N1CCC2(CC1)N=C(c1ccc(Cl)cc1)NC2=O [Compound 87, 4-{2-[2-(4-chloro-phenyl)-4-oxo-1,3,8-triaza-spiro[4.5]dec-1-ene-8-sulfonyl]-ethyl}-3,N,N-trimethyl-benzamide]

The next lines start with the molecule.

SMILES	cAMP production activity (%)
Cc1cc(S(=O)(=O)N2CCC3(CC2)N=C(C2CCCCC2)NC3=O)c(C)s1 [Compound 64, 2-cyclohexyl-8-(2,5-dimethyl-thiophene-3-sulfonyl)-1,3,8-triaza-spiro[4.5]dec-1-en-4-one]	45%
O=C1NC(C2CCCCC2)=NC12CCN(S(=O)(=O)c1ccc(Br)s1)CC2 [Compound 65, 8-(5-bromo-thiophene-2-sulfonyl)-2-cyclohexyl-1,3,8-triaza-spiro[4.5]dec-1-en-4-one]	65%
O=C1NC(c2cccc(C(F)(F)F)c2)=NC12CCN(S(=O)(=O)c1ccc(Cl)s1)CC2 [Compound 66, 8-(5-Chloro-thiophene-2-sulfonyl)-2-(3-trifluoromethyl-phenyl)-1,3,8-triaza-spiro[4.5]dec-1-en-4-one]	57%
O=C1NC(c2cccc(C(F)(F)F)c2)=NC12CCN(S(=O)(=O)c1ccc3ccccc3c1)CC2 [Compound 67, 8-(naphthalene-2-sulfonyl)-2-(3-trifluoromethyl-phenyl)-1,3,8-triaza-spiro[4.5]dec-1-en-4-one]	53%
O=C1NC(c2cccc(C(F)(F)F)c2)=NC12CCN(S(=O)(=O)c1cc3ccccc3s1)CC2 [Compound 68, 8-(benzo[b]thiophene-2-sulfonyl)-2-(3-trifluoromethyl-phenyl)-1,3,8-triaza-spiro[4.5]dec-1-en-4-one]	51%
O=C1NC(c2cccc(C(F)(F)F)c2)=NC12CCN(S(=O)(=O)c1ccc(Br)s1)CC2 [Compound 69, 8-(5-bromo-thiophene-2-sulfonyl)-2-(3-trifluoromethyl-phenyl)-1,3,8-triaza-spiro[4.5]dec-1-en-4-one]	61%
O=C1NC(C2CCCCC2)=NC12CCCN(S(=O)(=O)c1cccc(Cl)c1)CC2 (stereo not drawn) [Compound 70, 8-(3-Chloro-benzenesulfonyl)-2-cyclohexyl-1,3,8-triaza-spiro[4.6]undec-1-en-4-one]	31%
O=C1NC(C2CCCCC2)=NC12CCCN(S(=O)(=O)c1cccc(Cl)c1)C2 (stereo not drawn) [Compound 71, 7-(3-chloro-benzenesulfonyl)-2-cyclohexyl-1,3,7-triaza-spiro[4.5]dec-1-en-4-one]	3.7%
O=C1NC(C2CCCCC2)=NC12CCN(S(=O)(=O)c1cccc(Cl)c1)C2 (stereo not drawn) [Compound 72, 7-(3-chloro-benzenesulfonyl)-2-cyclohexyl-1,3,7-triaza-spiro[4.4]non-1-en-4-one]	1.5%
Cc1cc(C(=O)N(C)C)ccc1CCS(=O)(=O)N1CCC2(CC1)N=C(C(C)(C)C)NC2=O [Compound 74, 4-[2-(2-tert-butyl-4-oxo-1,3,8-triaza-spiro[4.5]dec-1-ene-8-sulfonyl)-ethyl]-3,N,N-trimethyl-benzamide]	48%
Cc1cc(C(=O)N(C)C)ccc1CCS(=O)(=O)N1CCC2(CC1)N=C(c1ccc(C(F)(F)F)cc1)NC2=O [Compound 75, 3,N,N-trimethyl-4-{2-[4-oxo-2-(4-trifluoromethyl-phenyl)-1,3,8-triaza-spiro[4.5]dec-1-ene-8-sulfonyl]-ethyl}-benzamide]	75%
Cc1cc(C(=O)N(C)C)ccc1CCS(=O)(=O)N1CCC2(CC1)N=C(C1CCC(C)CC1)NC2=O (stereo not drawn) [Compound 76, 3,N,N-trimethyl-4-{2-[2-(4-methyl-cyclohexyl)-4-oxo-1,3,8-triaza-spiro[4.5]dec-1-ene-8-sulfonyl]-ethyl}-benzamide]	73%
Cc1cc(C(=O)N(C)C)ccc1CCS(=O)(=O)N1CCC2(CC1)N=C(C1CCCC1)NC2=O [Compound 77, 4-[2-(2-cyclopentyl-4-oxo-1,3,8-triaza-spiro[4.5]dec-1-ene-8-sulfonyl)-ethyl]-3,N,N-trimethyl-benzamide]	69%
Cc1cc(C(=O)N(C)C)ccc1CCS(=O)(=O)N1CCC2(CC1)N=C(c1cc(C(F)(F)F)cc(C(F)(F)F)c1)NC2=O [Compound 82, 4-{2-[2-(3,5-bis-trifluoromethyl-phenyl)-4-oxo-1,3,8-triaza-spiro[4.5]dec-1-ene-8-sulfonyl]-ethyl}-3,N,N-trimethyl-benzamide]	65%
Cc1cc(C(=O)N(C)C)ccc1CCS(=O)(=O)N1CCC2(CC1)N=C(Cc1ccccc1)NC2=O [Compound 83, 4-[2-(2-benzyl-4-oxo-1,3,8-triaza-spiro[4.5]dec-1-ene-8-sulfonyl)-ethyl]-3,N,N-trimethyl-benzamide]	41%
